According to patent US8431523B2, “Oligomeric biosurfactants in dermatocosmetic compositions” (priority 2006, dated 2013):
Non-standard residues stand in square brackets, D forms with d. Residues, ends and D or L forms follow the SMILES beside them. *: point of attachment. Palmitoyl = CCCCCCCCCCCCCCCC(=O)*; Myristoyl = CCCCCCCCCCCCCC(=O)*

tested on: metabolic soluble proteins; assay: CBQCA Protein Quantitation Assay (metabolic soluble protein); type: cell-based
Method: A first aspect of the present invention is directed to OABs having an ability to increase metabolic soluble proteins by at least about 20%. For purposes of the present invention, metabolic soluble protein is measured using the CBQCA Protein Quantitation Assay from Molecular Probes, Inc. (Eugene, Oreg.). This assay is based on aquinoline-2-carboxaldehyde derivative, which specifically reacts with primary amines to form conjugates capable of electrophoretic or chromatographic analysis. More specifically, in the presence of the cyanide anion, the quinoline-2-carboxaldehyde derivative reacts with primary amines, including those on proteins, and produces a highly-fluorescent emission at 550 nm.

Molecule | increases metabolic soluble protein (qualitative) | increase metabolic soluble proteins
CCCCCCCCCCCCCC(=O)N[C@@H](CCCNC(=N)N)C(N)=O [P391, Myr-R-amide] | increases metabolic soluble protein | –
Myr-III-amide [P420] | – | at least 20%
Myr-RH-amide [P393] | increases metabolic soluble protein | –
Pal-KK-amide [P316] | increases metabolic soluble protein | –
Pal-RR-amide [P318] | increases metabolic soluble protein | –

tested on: E. coli, P. aeruginosa, P. cepacia, S. aureus, including MRSA, S. epidermidis, and C. albicans; assay: not given; type: cell-based
Text: By “antimicrobial” activity is meant the ability to inhibit the growth of at least one microbial organism selected from the group consisting E. coli, P. aeruginosa, S. aureus and C. albicans, as confirmed by optical density measurement (“OD”).
By “inhibition of growth” is meant reduction or absence of an increase greater than 5% in OD, a dimensionless measure of turbidity that is proportional to the amount of microbial cells present in a sample. For illustrative purposes, a OAB according to the present invention is added to a culture plate on which E. coli is present at a final concentration of about 5×10^3 cfu/ml. The plate is then incubated at about 37° C. for about 24 hours at which time the E. coli is resuspended by shaking, and OD is measured at about 600 nm. Thus, a reduction or absence of an increase greater than 5% in OD confirms the antimicrobial nature of the OAB with respect to E. coli.
Minimum inhibitory concentration (“MIC”) is a method well-known to those of skill in the art for expressing antimicrobial activity. A compound to be tested is serially diluted into growth medium, inoculated with culture and then incubated. The MIC is the lowest dilution of compound that inhibits or prevents growth of the target microorganism.
A further aspect of the present invention is directed to oligomeric acylated biosurfactants having a CMC of less than about 100 ppm in an aqueous environment of MEM Solution that reduces the surface tension of the MEM Solution to less than about […] where the OAB consists essentially of two to nine amino acid residues, at least one of which is charged, and has a MIC of less than 100 ppm for at least two of the following microorganisms: E. coli, P. aeruginosa, P. cepacia, S. aureus, including MRSA, S. epidermidis, and C. albicans. OABs meeting this criterion are selected from the group consisting of: Myr-GR-amide (P300); Myr-KK-amide (P315); Pal-HR-amide (P320); Myr-KK-acid (P347); SEQ ID NO 79 (P367); Myr-GHR-amide (P245); Pal-GHR-amide (P250); Myr-GRK-amide (P303); Pal-G-H—[R]^D-amide (P366); SEQ ID NO 84 (368); SEQ ID NO 58 (P370); SEQ ID NO 59 (P360); SEQ ID NO 60 (P373); SEQ ID NO 61 (P376); SEQ ID NO 62 (P369); SEQ ID NO 63 (P379); SEQ ID NO 64 (P381); SEQ ID NO 65 (P416); SEQ ID NO 66 (P383); and SEQ ID NO 67 (P289).

Molecule | MIC for at least two of the listed microorganisms
CCCCCCCCCCCCCCCC(=O)NCC(=O)N[C@@H](Cc1c[nH]cn1)C(=O)N[C@@H](CCCNC(=N)N)C(N)=O [P250, Pal-GHR-amide] (Palmitoyl-Gly-His-Arg-NH2) | less than 100 ppm
CCCCCCCCCCCCCC(=O)N[C@@H](CC(C)C)C(=O)N[C@@H](CCCCN)C(=O)N[C@@H](C)C(=O)N[C@@H](CCCCN)C(N)=O [P289, Myr-LKAK-amide] (Myristoyl-LKAK-NH2) | less than 100 ppm
CCCCCCCCCCCCCC(=O)NCC(=O)N[C@@H](CCCNC(=N)N)C(N)=O [P300, Myr-GR-amide] (Myristoyl-Gly-Arg-NH2) | less than 100 ppm
CCCCCCCCCCCCCC(=O)NCC(=O)N[C@@H](CCCNC(=N)N)C(=O)N[C@@H](CCCCN)C(N)=O [P303, Myr-GRK-amide] (Myristoyl-Gly-Arg-Lys-NH2) | less than 100 ppm
CCCCCCCCCCCCCC(=O)N[C@@H](CCCCN)C(=O)N[C@@H](CCCCN)C(N)=O [P315, Myr-KK-amide] | less than 100 ppm
CCCCCCCCCCCCCCCC(=O)N[C@@H](Cc1c[nH]cn1)C(=O)N[C@@H](CCCNC(=N)N)C(N)=O [P320, Pal-HR-amide] (Palmitoyl-His-Arg-NH2) | less than 100 ppm
CCCCCCCCCCCCCC(=O)N[C@@H](CCCCN)C(=O)N[C@@H](CCCCN)C(=O)O [P347, Myr-KK-acid] | less than 100 ppm
CCCCCCCCCCCCCC(=O)N[C@H](CCCCN)C(=O)N[C@@H](CCCCN)C(=O)N[C@H](C)C(=O)N[C@@H](CC(C)C)C(=O)N[C@H](CCCCN)C(N)=O [P360, Myr-[K]^D-K-[A]^D-L-[K]^D-amide] (Myristoyl-[dK]K[dA]L[dK]-NH2) | less than 100 ppm
CCCCCCCCCCCCCCCC(=O)NCC(=O)N[C@@H](Cc1c[nH]cn1)C(=O)N[C@H](CCCNC(=N)N)C(N)=O [P366, Pal-G-H-[R]^D-amide] (Palmitoyl-Gly-His-[dR]-NH2) | less than 100 ppm
CCCCCCCCCCCCCCCC(=O)N[C@@H](CCCCN)C(=O)N[C@H](CCCCN)C(N)=O [P367, Pal-K-[K]^D-amide] | less than 100 ppm
CCCCCCCCCCCCCC(=O)N[C@@H](CCCCN)C(=O)N[C@@H](CCCCN)C(=O)N[C@@H](C)C(=O)N[C@@H](CC(C)C)C(=O)N[C@@H](CCCCN)C(=O)N[C@@H](CCCCN)C(N)=O [P369, Myr-KKALKK-amide] (Myristoyl-KKALKK-NH2) | less than 100 ppm
CCCCCCCCCCCCCCCC(=O)N[C@@H](CC(C)C)C(=O)N[C@@H](C)C(=O)N[C@@H](CCCCN)C(=O)N[C@@H](CCCCN)C(N)=O [P370, Pal-LAKK-amide] (Palmitoyl-LAKK-NH2) | less than 100 ppm
CCCCCCCCCCCCCC(=O)N[C@@H](CCCCN)C(=O)N[C@@H](CCCCN)C(=O)N[C@@H](CO)C(=O)N[C@@H](CC(C)C)C(=O)N[C@@H](CCCCN)C(N)=O [P373, Myr-KKSLK-amide] (Myristoyl-KKSLK-NH2) | less than 100 ppm
CCCCCCCCCCCCCC(=O)N[C@@H](CC(C)C)C(=O)N[C@@H](C)C(=O)N[C@H](C(=O)N[C@@H](CCCCN)C(=O)N[C@@H](CCCCN)C(N)=O)[C@@H](C)CC [P376, Myr-LAIKK-amide] (Myristoyl-LAIKK-NH2) | less than 100 ppm
CCCCCCCCCCCCCC(=O)N[C@@H](CCCCN)C(=O)N[C@@H](CCCCN)C(=O)N[C@@H](C)C(=O)N[C@@H](CC(C)C)C(=O)N[C@@H](CCCCN)C(=O)N[C@@H](C)C(N)=O [P379, Myr-KKALKA-amide] (Myristoyl-KKALKA-NH2) | less than 100 ppm
CCCCCCCCCCCCCC(=O)N[C@@H](CC(C)C)C(=O)N[C@@H](CCCCN)C(=O)N[C@@H](CCCCN)C(=O)N[C@@H](C)C(=O)N[C@@H](CC(C)C)C(=O)N[C@@H](CCCCN)C(N)=O [P381, Myr-LKKALK-amide] (Myristoyl-LKKALK-NH2) | less than 100 ppm
CCCCCCCCCCCCCC(=O)N[C@@H](CO)C(=O)N[C@@H](CC(=O)O)C(=O)NCC(=O)N[C@@H](CCCNC(=N)N)C(N)=O [P383, Myr-SDGR-amide] (Myristoyl-SDGR-NH2) | less than 100 ppm
CCCCCCCCCCCCCC(=O)N[C@H](C(=O)N[C@H](C(=O)N[C@H](C(=O)N[C@@H](CCCCN)C(=O)N[C@@H](CCCCN)C(=O)N[C@@H](CCCCN)C(N)=O)[C@@H](C)CC)[C@@H](C)CC)[C@@H](C)CC [P416, Myr-IIIKKK-amide] (Myristoyl-IIIKKK-NH2) | less than 100 ppm
